Values quoted from earlier work, collected in patent US7157490B2, “Phenylalanine derivatives as dipeptidyl peptidase inhibitors for the treatment or prevention of diabetes” (Merck & Co., Inc., priority 2002, dated 2007).

How the values were obtained:
DP-IV = biological target: T1, DP-IV (Homo sapiens, UniProt P27487)
T1 construct: GRF is rapidly degraded in plasma to GRF[3–44]; from tissue

[1] = system: mouse model of cyclophosphamide-induced neutropenia
rats = conditions: doubled from day 7

T1 sequence (P27487 39-766 limits assumed): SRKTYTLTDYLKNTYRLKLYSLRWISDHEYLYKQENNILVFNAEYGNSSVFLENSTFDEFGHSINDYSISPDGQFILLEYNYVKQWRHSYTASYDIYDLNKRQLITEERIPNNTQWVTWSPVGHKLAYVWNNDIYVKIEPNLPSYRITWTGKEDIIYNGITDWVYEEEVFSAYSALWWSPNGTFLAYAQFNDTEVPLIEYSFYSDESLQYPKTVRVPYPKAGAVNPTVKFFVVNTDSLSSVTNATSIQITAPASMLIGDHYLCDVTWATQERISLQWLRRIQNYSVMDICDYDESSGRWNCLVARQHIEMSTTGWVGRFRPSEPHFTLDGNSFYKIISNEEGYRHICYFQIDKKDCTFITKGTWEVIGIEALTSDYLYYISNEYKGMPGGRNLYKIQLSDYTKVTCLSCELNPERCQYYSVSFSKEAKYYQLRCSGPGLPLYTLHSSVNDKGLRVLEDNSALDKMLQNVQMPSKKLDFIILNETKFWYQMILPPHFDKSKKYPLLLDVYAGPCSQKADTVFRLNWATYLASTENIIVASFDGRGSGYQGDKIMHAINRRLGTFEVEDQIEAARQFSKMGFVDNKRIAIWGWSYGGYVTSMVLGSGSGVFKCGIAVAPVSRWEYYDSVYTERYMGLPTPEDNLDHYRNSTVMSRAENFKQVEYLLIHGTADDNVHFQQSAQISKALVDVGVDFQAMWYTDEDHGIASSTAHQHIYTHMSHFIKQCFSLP

## diprotin A
DP-IV
  degradation of GRF in plasma to GRF[3–44]: prevented

## CC(C)[C@H](N)C(=O)N1CCC[C@H]1B(O)O [Val-Boro-Pro]
[1]
  hematopoiesis: stimulated hematopoiesis

## CC(C)N1CCC(c2ccccc2)(c2ccccc2)CC1 [Prodipine, Pro-Pro-diphenyl-phosphonate]
rats
  cardiac allograft survival: 14 day
